Data reported in patent publication US10407467B2, “Polymyxin derivatives and their use in combination therapy together with different antibiotics” (priority 2013, dated 2019).
Counter-ions that a name gives are not always drawn. Like-named read-outs stand apart in the source and are kept apart here. Bridge positions count the residues as written; N and C are the ends. Square brackets hold non-standard residues; d marks the D form. Peptide text beside a SMILES is read from it. * marks the point of attachment. ξ: configuration not given here. Acetyl(2-(piperazin-1-yl)) = O=C(CN1CCNCC1)*; ξβ3hGly(cHex) = NC(CC(=O)*)C1CCCCC1; Thr(3ξ) = CC(O)[C@H](N)C(=O)O; X10 = NC1(CC(=O)*)CCCCC1; Dab = NCC[C@H](N)C(=O)O; Inp = O=C(O)C1CCNCC1

What was measured:
[1] = tested on: Pseudomonas aeruginosa; experiment: MIC, compound in combination with a second agent (broth microdilution); format: cell-based; details: 1:1 (wt:wt) combination with Rifampicin, MIC = total drug concentration; for MIC P. aeruginosa ATCC 27853: strain ATCC 27853; for MIC P. aeruginosa ATCC CRM-9027: strain ATCC CRM-9027; for MIC P. aeruginosa ATCC-47: strain ATCC-47; for MIC P. aeruginosa CCUG 59626: strain CCUG 59626
Procedure, shortened: (§1)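 MIC values express combined concentration of test compound plus partner agent such as rifampicin, mixed at equal mass (1:1 w/w, salt-form weight). Direct colony suspensions at 0.5 McFarland, up to four strains per species, tested in duplicate; >2-fold disagreement invalid, otherwise lower value or mode of repeats reported.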

[2] = tested on: Escherichia coli; experiment: as above; format: cell-based; details: 1:1 (wt:wt) combination with Rifampicin, MIC = total drug concentration; for MIC E. coli ATCC25922: strain ATCC25922; for MIC E. coli NCTC9001: strain NCTC9001
Procedure, shortened: as §1

[3] = tested on: Acinetobacter baumannii; experiment: as above; format: cell-based; details: 1:1 (wt:wt) combination with Rifampicin, MIC = total drug concentration; for MIC A. baumannii ATCC BAA-747: strain ATCC BAA-747; for MIC A. baumannii CCUG57249: strain CCUG57249; for MIC A. baumannii NCTC 13423: strain NCTC 13423; for MIC A. baumannii NCTC 13424: strain NCTC 13424
Procedure, shortened: as §1

[4] = tested on: Klebsiella pneumoniae; experiment: as above; format: cell-based; details: 1:1 (wt:wt) combination with Rifampicin, MIC = total drug concentration; for MIC K. pneumoniae ATCC-BAA-2146: strain ATCC-BAA-2146; for MIC K. pneumoniae CCUG-59348: strain CCUG-59348; for MIC K. pneumoniae ATCC 4352: strain ATCC 4352
Procedure, shortened: as §1

[5] = tested on: P. aeruginosa ATCC 27853; details: for effect on thigh burdens: 2 or 4 mg/kg IV three times at 1, 3.5 and 6 hours post infection; for Log reduction from vehicle (CFU/g): ATCC 27853, in vivo, iv, 6 h
[6] = tested on: Pseudomonas aeruginosa; experiment: MIC, sole activity (no second agent); format: cell-based; details: in the absence of Rifampicin; for MIC P. aeruginosa ATCC 27853: strain ATCC27853; for MIC P. aeruginosa ATCC-47: strain ATCC-47; for MIC P. aeruginosa ATCCCRM-9027: strain ATCCCRM-9027; for MIC P. aeruginosa CCUG 59626: strain CCUG 59626
Procedure, shortened: (§2)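 Up to four strains per species were tested in cation-adjusted Mueller-Hinton broth, with inoculum made by direct colony suspension from 18-24 hour Mueller-Hinton agar plates, adjusted to 0.5 McFarland. Duplicates differing by under 2-fold gave the lower value; greater spread voided the run. Values are relative to Polymyxin B.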

[7] = tested on: Escherichia coli; experiment: MIC, sole activity (no second agent); format: cell-based; details: in the absence of Rifampicin; for MIC E. coli NCTC9001: strain NCTC9001; for MIC E. coli ATCC25922: strain ATCC25922
Procedure, shortened: as §2

[8] = tested on: Acinetobacter baumannii; experiment: MIC, sole activity (no second agent); format: cell-based; details: in the absence of Rifampicin; for MIC A. baumannii ATCCBAA-747: strain ATCCBAA-747; for MIC A. baumannii NCTC 13423: strain NCTC13423; for MIC A. baumannii ATCC13424: strain ATCC13424; for MIC A. baumannii CCUG57249: strain CCUG 57249
Procedure, shortened: as §2

[9] = tested on: Klebsiella pneumoniae; experiment: MIC, sole activity (no second agent); format: cell-based; details: in the absence of Rifampicin; for MIC K. pneumoniae ATCC 4352: strain ATCC 4352; for MIC K. pneumoniae ATCC-BAA2146: strain ATCC-BAA2146; for MIC K. pneumoniae CCUG-59348: strain CCUG-59348
Procedure, shortened: as §2

Row | Compound | MIC P. aeruginosa ATCC 27853 [1] | MIC P. aeruginosa ATCC CRM-9027 [1] | MIC P. aeruginosa ATCC-47 [1] | MIC P. aeruginosa CCUG 59626 [1] | MIC E. coli ATCC25922 [2] | MIC E. coli NCTC9001 [2] | MIC A. baumannii ATCC BAA-747 [3] | MIC A. baumannii CCUG57249 [3] | MIC A. baumannii NCTC 13423 [3] | MIC A. baumannii NCTC 13424 [3] | MIC K. pneumoniae ATCC-BAA-2146 [4] | MIC K. pneumoniae CCUG-59348 [4] | MIC K. pneumoniae ATCC 4352 [4] | MIC P. aeruginosa ATCC-47 [6] | MIC P. aeruginosa ATCCCRM-9027 [6] | MIC P. aeruginosa CCUG 59626 [6] | MIC E. coli NCTC9001 [7] | MIC A. baumannii ATCCBAA-747 [8] | MIC A. baumannii NCTC 13423 [8] | MIC K. pneumoniae ATCC 4352 [9] | also measured
1 | CC(C)C[C@@H]1NC(=O)[C@@H](Cc2ccccc2)NC(=O)[C@H](CCN)NC(=O)[C@@H](NC(=O)[C@H](CCN)NC(=O)[C@@H](NC(=O)CC2(N)CCCCC2)C(C)O)CCNC(=O)[C@H](C(C)O)NC(=O)[C@H](CCN)NC(=O)[C@H](CCN)NC1=O (stereo partly shown) [Example 42, 2-(1-aminocyclohexyl) ethanoyl Polymyxin B nonapeptide TFA salt] (X10-[Thr(3ξ)][Dab][Dab][Dab][dF]L[Dab][Dab][Thr(3ξ)]; lactam 3-C) | 0.125 micrograms/mL | 0.25 micrograms/mL | ≤0.06 micrograms/mL | 0.125 micrograms/mL | ≤0.06 micrograms/mL | 0.125 micrograms/mL | 0.125 micrograms/mL | ≤0.06 micrograms/mL | ≤0.06 micrograms/mL | ≤0.06 micrograms/mL | 0.125 micrograms/mL | 4 micrograms/mL |  |  |  |  |  |  |  |  | effect on thigh burdens [5]: did not reduce thigh burdens significantly; Log reduction from vehicle (CFU/g) ([5]; 2 mg/kg): −0.03 log CFU/g; Log reduction from vehicle (CFU/g) ([5]; 4 mg/kg): −0.28 log CFU/g
2 | CC(C)C[C@@H]1NC(=O)[C@@H](Cc2ccccc2)NC(=O)[C@H](CCN)NC(=O)[C@@H](NC(=O)[C@@H](CO)NC(=O)[C@@H](NC(=O)CC(N)C2CCCCC2)[C@@H](C)O)CCNC(=O)[C@H](C(C)O)NC(=O)[C@H](CCN)NC(=O)[C@H](CCN)NC1=O (stereo partly drawn) [Example 48, [3-Amino-3-cyclohexyl-propionyl]-L-Thr-D-Ser-polymyxin B heptapeptide, TFA salt] ({ξβ3hGly(cHex)}-T[dS][Dab][Dab][dF]L[Dab][Dab][Thr(3ξ)]; lactam 3-C) | 1 micrograms/mL | 1 micrograms/mL | 2 micrograms/mL | 1 micrograms/mL | 0.25 micrograms/mL | 0.5 micrograms/mL | 0.125 micrograms/mL | ≤0.06 micrograms/mL | 0.125 micrograms/mL | ≤0.06 micrograms/mL | 2 micrograms/mL | 2 micrograms/mL | 0.25 micrograms/mL | 8 micrograms/mL | 0.5 micrograms/mL | 1 micrograms/mL | >32 micrograms/mL | 0.25 micrograms/mL | 0.25 micrograms/mL | 0.5 micrograms/mL | MIC P. aeruginosa ATCC 27853 [6]: 4 micrograms/mL; MIC K. pneumoniae ATCC-BAA2146 [9]: 4 micrograms/mL; MIC K. pneumoniae CCUG-59348 [9]: >32 micrograms/mL

Continued, in another order:

Row | MIC P. aeruginosa ATCC 27853 [1] | MIC P. aeruginosa ATCC CRM-9027 [1] | MIC P. aeruginosa ATCC-47 [1] | MIC P. aeruginosa CCUG 59626 [1] | MIC E. coli ATCC25922 [2] | MIC E. coli NCTC9001 [2] | MIC A. baumannii ATCC BAA-747 [3] | MIC A. baumannii CCUG57249 [3] | MIC A. baumannii NCTC 13423 [3] | MIC A. baumannii NCTC 13424 [3] | MIC K. pneumoniae ATCC-BAA-2146 [4] | MIC K. pneumoniae CCUG-59348 [4] | MIC K. pneumoniae ATCC 4352 [4] | MIC P. aeruginosa ATCC-47 [6] | MIC P. aeruginosa ATCCCRM-9027 [6] | MIC P. aeruginosa CCUG 59626 [6] | MIC E. coli NCTC9001 [7] | MIC A. baumannii ATCCBAA-747 [8] | MIC A. baumannii NCTC 13423 [8] | MIC K. pneumoniae ATCC 4352 [9] | Compound | also measured
3 | 0.125 micrograms/mL | 0.125 micrograms/mL | 0.25 micrograms/mL | 0.25 micrograms/mL | ≤0.06 micrograms/mL | 0.125 micrograms/mL | 0.125 micrograms/mL | 0.125 micrograms/mL | 0.125 micrograms/mL | 0.125 micrograms/mL | 0.25 micrograms/mL | 8 micrograms/mL | ≤0.06 micrograms/mL | 32 micrograms/mL | 0.5 micrograms/mL | 2 micrograms/mL | >32 micrograms/mL | 4 micrograms/mL | 2 micrograms/mL | 4 micrograms/mL | CC(C)C[C@H]1NC(=O)[C@H](CCN)NC(=O)[C@@H](NC(=O)[C@H](CCN)NC(=O)[C@@H](NC(=O)CC(N)C2CCCCC2)C(C)O)CCNC(=O)[C@H](C(C)O)NC(=O)[C@H](CCN)NC(=O)[C@H](CCN)NC(=O)[C@H](C(C)O)NC1=O (stereo partly drawn) [Example 50, 3-Amino-3-cyclohexyl propanoyl-Thr-Dab-(cyclo)Dab*-Dab-DLeu-Thr-Dab-Dab-Thr*] ({ξβ3hGly(cHex)}-[Thr(3ξ)][Dab][Dab][Dab][dL][Thr(3ξ)][Dab][Dab][Thr(3ξ)]; lactam 3-C) | MIC P. aeruginosa ATCC 27853 [6]: 32 micrograms/mL; MIC E. coli ATCC25922 [7]: >32 micrograms/mL; MIC A. baumannii ATCC13424 [8]: 4 micrograms/mL; MIC A. baumannii CCUG57249 [8]: 4 micrograms/mL; MIC K. pneumoniae ATCC-BAA2146 [9]: 16 micrograms/mL; MIC K. pneumoniae CCUG-59348 [9]: >32 micrograms/mL
4 | 0.25 micrograms/mL | 0.25 micrograms/mL | 0.5 micrograms/mL | 0.5 micrograms/mL | 0.125 micrograms/mL | 0.5 micrograms/mL | ≤0.06 micrograms/mL | ≤0.06 micrograms/mL | 0.125 micrograms/mL |  | 1 micrograms/mL | 4 micrograms/mL | 0.125 micrograms/mL | 32 micrograms/mL | 0.125 micrograms/mL | 0.25 micrograms/mL | >32 micrograms/mL | 4 micrograms/mL | 8 micrograms/mL | 2 micrograms/mL | CC(C)C[C@@H]1NC(=O)[C@@H](Cc2ccccc2)NC(=O)[C@H](CCN)NC(=O)[C@@H](NC(=O)[C@H](CCCCN)NC(=O)[C@@H](NC(=O)C2CCNCC2)C(C)O)CCNC(=O)[C@H](C(C)O)NC(=O)[C@H](CCN)NC(=O)[C@H](CCN)NC1=O (stereo partly drawn) [Example 51, Piperidin-4-yl carbonyl-L-Thr-L-Lys-polymyxin B heptapeptide, TFA salt] (H-[Inp][Thr(3ξ)]K[Dab][Dab][dF]L[Dab][Dab][Thr(3ξ)]; lactam 4-C) | MIC E. coli ATCC25922 [7]: >32 micrograms/mL; MIC A. baumannii ATCC13424 [8]: 4 micrograms/mL; MIC A. baumannii CCUG57249 [8]: 4 micrograms/mL; MIC K. pneumoniae ATCC-BAA2146 [9]: >32 micrograms/mL; MIC K. pneumoniae CCUG-59348 [9]: >32 micrograms/mL
5 | 0.125 micrograms/mL |  |  | 0.125 micrograms/mL | ≤0.06 micrograms/mL |  |  |  |  |  | 1 micrograms/mL | 8 micrograms/mL | 0.125 micrograms/mL |  |  |  |  |  |  |  | CC(C)C[C@@H]1NC(=O)[C@@H](Cc2ccccc2)NC(=O)[C@H](CCN)NC(=O)[C@@H](NC(=O)[C@H](CCN)NC(=O)[C@@H](NC(=O)CN2CCNCC2)C(C)O)CCNC(=O)[C@H](C(C)O)NC(=O)[C@H](CCN)NC(=O)[C@H](CCN)NC1=O (stereo partly shown) [Example 52, (1-piperazine) ethanoyl polymyxin B nonapeptide, trifluoroacetate salt] ({Acetyl(2-(piperazin-1-yl))}-[Thr(3ξ)][Dab][Dab][Dab][dF]L[Dab][Dab][Thr(3ξ)]; lactam 3-C) | effect on thigh burdens [5]: did not reduce thigh burdens significantly; Log reduction from vehicle (CFU/g) ([5]; 2 mg/kg): −0.14 log CFU/g; Log reduction from vehicle (CFU/g) ([5]; 4 mg/kg): −0.18 log CFU/g
